Laboratory results from patent publication US20250017885A1, “TREATMENT OF INCLUSION BODY MYOSITIS WITH PHENYLBUTYRATE AND MONITORING OF TREATMENT” (University of Kansas, priority 2023, published 2025).
Entries after “also recorded” stand apart in the source; their conditions may differ. Like-named read-outs stand apart in the source and are kept apart here.

Legend:
[1] = tested on: cultured human muscle fibers; conditions: Nogalska et al. 2014, cited from earlier work; for Aβ42 and Aβ42 oligomers / Lysosomal dysfunction / lysosomal activity / Muscle-fiber vacuolization / γ-secretase activity: cultured human muscle fibers with experimentally-impaired autophagy
[2] = tested on: patients with inclusion body myositis; test: Safety and tolerability of PBA in IBM patients (adverse event reporting, safety laboratory tests); assay type: in vivo, human; conditions: for Serious events not related to the study drug / Serious adverse events related to the study drug / Safety and tolerability / Safety laboratory tests (ALT, creatinine, creatine kinase, blood counts): IBM patients; for Serious adverse events related to the study drug: 3 gm twice daily for 3 months; for Safety and tolerability: 3 gm twice daily orally for 3 months; for Safety laboratory tests (ALT, creatinine, creatine kinase, blood counts): two subjects had mildly elevated liver enzymes at baseline
Method: In a study, PBA at a dose of 3 grams (gm) was administered twice daily in patients with inclusion body myositis. In this study, 10 patients received the daily doses of PBA for 3 months after run-up periods of 3 months. […] The study was conducted by monitoring biomarkers and biological indicators in the subjects. One of the biological indicators is mitochondrial membrane potential, and analyzing the biological indicator uses a mitochondrial tracker (e.g., MitoTracker) to monitor mitochondrial membrane potential. […] As such, the biomarkers, including a mitochondrial tracker, allow for monitoring the progress of treatment of IBM in the subject with PBA. Thus, the present invention can use PBA in human subjects to treat inclusion body myositis with a dose of 3 gm twice daily and monitoring biological indicators or other biomarkers to monitor progress of IBM in the subject. Safety and tolerability of PBA in IBM patients were studied, with a run-in period of 3 months without medication. Biomarkers were studied. […] We have previously assayed TDP-43 and its derivative, phosphorylated TDP-43 (pTDP-43) in peripheral blood platelets in our laboratory (Dr. Agbas). TDP43 positive cytoplasmic aggregates have been described in ALS motor neurons and IBM skeletal muscle tissue with significant up-regulation of TARDBP (the gene expresses TDP-43 protein) and SQTM1 (Sequestosome-1) gene expression.14 Therefore, we planned to measure blood-derived platelet total TDP-43 and pTDP-43 as surrogate biomarker for skeletal muscle TDP-43 profile of IBM patients. […] Secondary outcome measures included multiple strength and functional measures: manual muscle testing, timed up and go test (TUG), IBM functional rating scale (IBMFRS), and grip strength. These clinical outcome measures were commonly used in evaluating progression of IBM and in clinical trials of this disease.^18,19,20,21 In addition, safety laboratory tests and electrocardiogram would be monitored regularly. As mentioned above, the biomarkers would be repeated at the end of the treatment period. The PBA was administered orally at 3 gm doses twice a day. […] Mildly elevated liver enzyme reported in two subjects at baseline and before the treatment period. The most common adverse events which were considered related were GI symptoms (n=9). […] The safety lab tests for monitoring purposes include: Liver enzyme (ALT), renal function test (creatinine), muscle enzyme (creatine kinase) and blood counts (including WBC and platelets). For the primary outcome of safety, the frequency of Adverse Events (AEs) and Serious Adverse Events (SAEs) by grade, would be reported. This would be done for each follow-up visit as well as for all visits combined.

[3] = tested on: mitochondrial membrane potential; test: MitoTracker biomarker (overall mitochondrial mass / mitochondrial membrane potential) in IBM patients treated with PBA; assay type: in vivo, human
From the text: The mitochondrial tracker used to track treatment of IBM with PBA can include MitoTracker dyes that are cationic fluorophores that accumulate electrophoretically into mitochondria in response to the highly negative mitochondrial membrane potential. […] Thus, mitochondria retain MitoTracker dyes like MitoTracker Orange CMTMRos after loss of their membrane potential. Sec, Kholmukhamedov A, Schwartz J M, Lemasters J J. Isolated mitochondria infusion mitigates ischemia-reperfusion injury of the liver in rats: mitotracker probes and mitochondrial membrane potential. Shock. 2013 June; 39(6):543. doi:10.1097/SHK.0b013e318292300d. PMID: 23680774; PMCID: PMC3759289.
(§1) Safety and tolerability of PBA in IBM patients were studied, with a run-in period of 3 months without medication. Biomarkers were studied. […] We have previously assayed TDP-43 and its derivative, phosphorylated TDP-43 (pTDP-43) in peripheral blood platelets in our laboratory (Dr. Agbas). TDP43 positive cytoplasmic aggregates have been described in ALS motor neurons and IBM skeletal muscle tissue with significant up-regulation of TARDBP (the gene expresses TDP-43 protein) and SQTM1 (Sequestosome-1) gene expression.14 Therefore, we planned to measure blood-derived platelet total TDP-43 and pTDP-43 as surrogate biomarker for skeletal muscle TDP-43 profile of IBM patients.
The trend observed in the boxplots of MitoTracker data warranted further exploration with a post hoc analysis. A generalized linear mixed model was used to estimate mean values of MitoTracker at each timepoint. 10 of 11 subjects had measurements at all 3 timepoints. Time was used as a categorical value and correlation among an individual's repeated measurements was accounted for with a random effect for subject. The fixed effect, month, was not statistically significant (p=0.0724). […] The results from the model are exploratory.
For the secondary outcomes, the measurements at baseline, month-3, and month-7 would be reported using mean and standard deviation (or median and interquartile range for skewed measurements) along with a corresponding 95% confidence interval. These measurements would be visually compared using box plots to detect the presence of a trend over time by drawing a trend line on the means (or median). Due to the small sample size, this comparison would be done visually, and no formal statistical test would be done routinely but it would be considered to further study a trend.

[4] = tested on: Annexin, MitoSox, TMRE, TDP-43; test: Exploratory biomarkers: Annexin, MitoSox, TMRE, TDP-43; assay type: in vivo, human; conditions: FIGS. 7A-7B, 8A-8B, 9A-9B, 10A-10B
From the text: as §1

[5] = tested on: patients with inclusion body myositis; test: Secondary outcome measures: strength and functional measures (manual muscle testing, TUG, IBMFRS, grip strength); assay type: in vivo, human
From the text: Primary outcome measures included adverse event reporting. Secondary outcome measures included multiple strength and functional measures: manual muscle testing, timed up and go test (TUG), IBM functional rating scale (IBMFRS), and grip strength. These clinical outcome measures were commonly used in evaluating progression of IBM and in clinical trials of this disease.^18,19,20,21 In addition, safety laboratory tests and electrocardiogram would be monitored regularly. As mentioned above, the biomarkers would be repeated at the end of the treatment period. For the secondary outcomes, the measurements at baseline, month-3, and month-7 would be reported using mean and standard deviation (or median and interquartile range for skewed measurements) along with a corresponding 95% confidence interval. These measurements would be visually compared using box plots to detect the presence of a trend over time by drawing a trend line on the means (or median). Due to the small sample size, this comparison would be done visually, and no formal statistical test would be done routinely but it would be considered to further study a trend.

[6] = AE considered possibly or probably related, 3 gm orally twice a day, 3 months
[7] = AE considered unrelated, at baseline before the treatment period
[8] = gastrointestinal AE considered possibly or probably related, 3 gm orally twice a day, 3 months
[9] = lysosomal activity-inhibited CHMFs

O=C([O-])CCCc1ccccc1.[Na+] [NaPBA, Sodium phenylbutyrate]
Aβ42 and Aβ42 oligomers [1]: decreased Aβ42 and its oligomers
Lysosomal dysfunction / lysosomal activity [1]: improved lysosomal activity
Muscle-fiber vacuolization [1]: virtually prevented muscle-fiber vacuolization
γ-secretase activity [1]: decreased γ-secretase activity
Lysosomal dysfunction / lysosomal activity ([1]; listed as NaPB): reverses lysosomal dysfunction

phenylbutyrate [PBA]
Number of occurrences: Drowsiness [2, 6]: 1
Number of occurrences: Gastrointestinal AEs [2, 6]: 9
Number of occurrences: Hair Loss [2, 6]: 1
Number of occurrences: Musculoskeletal Pain [2, 6]: 2
Number of occurrences: Nasal Congestion [2, 6]: 1
Number of occurrences: Tremor [2, 6]: 1
Number of occurrences: Two Itchy Skin Lesions [2, 6]: 1
Number of subjects: Drowsiness [2, 6]: 1
Number of subjects: Gastrointestinal AEs [2, 6]: 9
Number of subjects: Hair Loss [2, 6]: 1
Number of subjects: Musculoskeletal Pain [2, 6]: 2
Number of subjects: Nasal Congestion [2, 6]: 1
Number of subjects: Tremor [2, 6]: 1
Number of subjects: Two Itchy Skin Lesions [2, 6]: 1
Number of subjects: Hair Loss ([2]; AE considered possibly or probably related, 3 gm orally twice a day, 3 months, listed as study drug): One subject had hair loss which was considered possibly related
Number of occurrences: Back Pain ([2]; AE considered unrelated): 1
Number of occurrences: Chills ([2]; AE considered unrelated): 1
Number of occurrences: Elevated White Blood Count ([2]; AE considered unrelated): 1
Number of occurrences: Elevated blood pressure ([2]; AE considered unrelated): 2
Number of occurrences: Falls ([2]; AE considered unrelated): 9
Number of occurrences: Headache ([2]; AE considered unrelated): 1
Number of occurrences: Low blood pressure ([2]; AE considered unrelated): 1
Number of occurrences: Numbness in the Legs ([2]; AE considered unrelated): 1
Number of occurrences: Right Bundle Branch Block ([2]; AE considered unrelated): 1
Number of occurrences: Urinary Urgency ([2]; AE considered unrelated): 2
Number of subjects: Back Pain ([2]; AE considered unrelated): 1
Number of subjects: Chills ([2]; AE considered unrelated): 1
Number of subjects: Elevated White Blood Count ([2]; AE considered unrelated): 1
Number of subjects: Elevated blood pressure ([2]; AE considered unrelated): 2
Number of subjects: Falls ([2]; AE considered unrelated): 6
Number of subjects: Headache ([2]; AE considered unrelated): 1
Number of subjects: Low blood pressure ([2]; AE considered unrelated): 1
Number of subjects: Numbness in the Legs ([2]; AE considered unrelated): 1
Number of subjects: Right Bundle Branch Block ([2]; AE considered unrelated): 1
Number of subjects: Urinary Urgency ([2]; AE considered unrelated): 2
Number of occurrences: Elevated liver enzymes [2, 7]: 2
Number of subjects: Elevated liver enzymes [2, 7]: 2
Serious events not related to the study drug [2]: the only serious event reported (a fall) was related to the disease itself, not the study drug
Serious adverse events related to the study drug [2]: no serious adverse events related to the study drug were reported
Serious adverse events related to the study drug ([2]; listed as study drug): No study drug-related serious events were reported
Safety and tolerability [2]: safe and well-tolerated
Safety and tolerability ([2]; listed as Phenylbutyrate): safe and well tolerated
Safety and tolerability ([2]; listed as study drug): well tolerated
Serious events not related to the study drug ([2]; listed as study drug): one serious event (a fall that required a hospital visit) that was not related to the study drug
Safety laboratory tests (ALT, creatinine, creatine kinase, blood counts) [2]: indicates safety for the PBA administration
Safety laboratory tests (ALT, creatinine, creatine kinase, blood counts) ([2]; listed as study drug): No other significant laboratory changes were noted
Number of occurrences: Constipation [2, 8]: 1
Number of occurrences: Heartburn [2, 8]: 4
Number of occurrences: Nausea [2, 8]: 2
Number of occurrences: Oral Aphthous [2, 8]: 1
Number of occurrences: Urgency [2, 8]: 1
Number of subjects: Constipation [2, 8]: 1
Number of subjects: Heartburn [2, 8]: 4
Number of subjects: Nausea [2, 8]: 2
Number of subjects: Oral Aphthous [2, 8]: 1
Number of subjects: Urgency [2, 8]: 1
Number of occurrences: Strep. Throat Infection ([2]; human, in vivo): 1
Number of subjects: Strep. Throat Infection ([2]; human, in vivo): 1
MitoTracker median ([3]; at the end of the treatment period, 19299 at the baseline, 28823 at the beginning of the treatment period): 8010
MitoTracker estimated coefficient (95% CI), Month 6 ([3]; generalized linear mixed model, Month 3 reference, p 0.0385): −21,344 (−41,402, −1,287)
MitoTracker estimated coefficient (95% CI), On treatment - Off treatment ([3]; generalized linear mixed model, after treatment vs months 0 and 3 combined): 20,780 (3,091, 38,469)
MitoTracker (mitochondrial mass) change with treatment ([3]; treatment period vs run-in period): statistically significant change in the mitochondria; also recorded: changes with treatment with PBA; also recorded: statistically significant change in MitoTracker (mitochondrial mass); also recorded: dropped at the end of the treatment period; also recorded: statistically significantly different from pre-treatment; also recorded: significant drop with treatment
Change in exploratory biomarkers (Annexin, MitoSox, TMRE, TDP-43) [4]: no meaningful change in most exploratory biomarkers
IBMFRS change during the study ([5]; 3 months run-in, 3 months treatment): did not seem to change during the study
IBMFRS median ([5]; at the end of the treatment period, median 23 at baseline, 24 at the beginning of the treatment period): 23
Strength evaluation of 24 muscles with accumulative total score, change ([5]; in vivo): No meaningful change
TUG (seconds) over the duration of the treatment, change ([5]; in vivo): No meaningful change
Change in all clinical and most biological outcome measures ([5]; short duration, small sample size): no meaningful changes in all clinical and most biological outcome measures
Aβ42 and Aβ42 oligomers [1]: decreases Aβ42 and Aβ42 oligomers
Muscle-fiber vacuolization [1]: decreasing their vacuolization
γ-secretase activity [1]: decreases γ-secretase activity
Cathepsins D and B activities [1, 9]: increased cathepsins D and B activities
NBR1, p62 and LC3-II [1, 9]: decrease of NBR1, p62 and LC3-II
